Experimental data from patent publication US11266599B2, “Inhalable dry powder cytidine analogue composition and method of use as a treatment for cancer” (Lovelace Biomedical Research Institute, priority 2018, dated 2022).
Values belong to the compound of their own block, whether it stands above or below them.

Columns and labels:
[1] = Pharmacokinetics study of systemic, inhaled aqueous and inhaled dry powder 5AZA, with and without THU; type: in vivo, Sprague Dawley rat; conditions: THU 80 mg/kg oral
Description: The 5AZA aerosol was delivered into the lungs of rats using a nose only inhalation delivery system in which a 5AZA dry powder formulation and a 5AZA aqueous formulation aerosol is generated with a rotating brush generator or Pari nebulizer, respectively. […] At each time-point, systemic blood was collected into K3EDTA tubes for separation into plasma and lung, liver, and brain tissue was snap frozen in liquid nitrogen. Plasma and lung tissue samples were assayed via a liquid chromatography mass spectrometry assay and the average concentration versus time profile modeled with non-compartmental analysis.

[2] = system: PD-L1; conditions: LC cell lines, in vitro; cited from earlier work
[3] = system: xenografts of human LC-derived cell lines; conditions: Rowett nude rat, systemic intraperitoneal injection, reference 29; cited from earlier work
[4] = rats, intravenous 200 mg/kg for a month; cited from earlier work
[5] = room temperature; cited from earlier work

- effect of addition of THU on PK profile of the dry powder formulation in brain [1]: greatly improved
- effect of addition of THU on lung PK of 5AZA [1]: did not influence
SMILES: O=C1NC(O)CCN1[C@@H]1O[C@H](CO)[C@@H](O)[C@H]1O (stereo partly drawn) [THU, tetrahydrouridine]

SMILES: Nc1ncn([C@@H]2O[C@H](CO)[C@@H](O)[C@H]2O)c(=O)n1 [5AZA, 4-amino-1-β-D-ribofuranosyl-1,3,5-triazin-2(1H)-one]
- expression of PD-L1 [2]: increased
- reduction of tumor burden / suppression of tumor growth [3]: 31%

SMILES: C[S+](C)[O-] [DMSO]
- toxicity [4]: no toxicity

SMILES: Nc1ncn([C@H]2C[C@H](O)[C@@H](CO)O2)c(=O)n1 [DAC, 5-aza-2′-deoxyazacytidine]
- stability in aqueous solution [5]: relatively unstable
